Measurements from ChEMBL document CHEMBL1201862, “PubChem BioAssay data set” (2004).
Calls of active or inactive are those of the source.

Key:
[1] = MIN6 cell viability loss – mouse insulinoma, cytotoxicity control, dose response (AID 2122); assay type: functional;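 note: confirmatory high-throughput counterscreen run to flag cytotoxic compounds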
[2] = decrease of insulin promoter-GFP reporter – imaging, high-content screening, mouse beta cells (AID 1628); assay type: functional; settings: MIN6
[3] = test system: Escherichia coli; experiment: microbe, parasite or virus in culture
[4] = test system: Escherichia coli; experiment: microbe, parasite or virus in culture; remark: listed apart in the source
[5] = molecular target: Intestinal-type alkaline phosphatase (Mus musculus, UniProt P24822); experiment: PubChem AID 488785; assay type: functional
[6] = molecular target: T1, Alkaline phosphatase, tissue-nonspecific isozyme (Homo sapiens, UniProt P05186); experiment: TNAP enzyme inhibition by screening hits, dose response, selectivity assay for mouse IAP inhibitor project, biochemical, human TNAP, uHTS hits (AID 488906); assay type: functional
T1 sequence (P05186 whole entry): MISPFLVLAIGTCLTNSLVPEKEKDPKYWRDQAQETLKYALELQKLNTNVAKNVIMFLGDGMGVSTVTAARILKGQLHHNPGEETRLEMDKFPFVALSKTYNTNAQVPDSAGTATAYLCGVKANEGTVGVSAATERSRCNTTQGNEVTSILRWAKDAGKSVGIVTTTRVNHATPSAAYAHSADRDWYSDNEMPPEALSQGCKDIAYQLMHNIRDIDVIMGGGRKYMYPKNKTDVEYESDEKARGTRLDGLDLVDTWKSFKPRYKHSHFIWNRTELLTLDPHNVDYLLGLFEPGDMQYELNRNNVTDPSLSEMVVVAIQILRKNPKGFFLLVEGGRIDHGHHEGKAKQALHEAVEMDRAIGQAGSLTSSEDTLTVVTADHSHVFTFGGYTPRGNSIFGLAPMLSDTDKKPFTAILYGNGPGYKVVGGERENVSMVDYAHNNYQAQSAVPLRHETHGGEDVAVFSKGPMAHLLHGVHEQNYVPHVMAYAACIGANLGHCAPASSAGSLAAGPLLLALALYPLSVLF

[7] = molecular target: Intestinal-type alkaline phosphatase (Homo sapiens, UniProt P09923); experiment: inhibition of human intestinal alkaline phosphatase – biochemical, dose response (AID 488876); assay type: functional
[8] = molecular target: Peroxisome proliferator-activated receptor gamma/Nuclear receptor coactivator 2 (Homo sapiens, UniProt P37231); experiment: TR-FRET dose response biochemical High Throughput Screening assay for agonists of the steroid receptor coactivator 2 (SRC-2) recruitment by the peroxisome proliferator-activated receptor gamma (PPAR gamma): non-selective agonists. [Related pubchem assays: 1297, 1032 ]; assay type: functional
[9] = molecular target: Peroxisome proliferator-activated receptor gamma/Nuclear receptor coactivator 1 (Homo sapiens, UniProt P37231); experiment: TR-FRET dose response biochemical High Throughput Screening assay for agonists of the steroid receptor coactivator 1 (SRC-1) recruitment by the peroxisome proliferator-activated receptor gamma (PPAR gamma): non-selective agonists. [Related pubchem assays (depositor defined):AID1300, AID1808, AID504735, AID631]; assay type: protein assay
[10] = molecular target: T2, Zinc finger protein mex-5 (Caenorhabditis elegans, UniProt Q9XUB2); experiment: potency of MEX-5 RNA-binding blockers – biochemical, C. elegans, fluorescence polarization, dose response (AID 1960)
T2 sequence (Q9XUB2 whole entry): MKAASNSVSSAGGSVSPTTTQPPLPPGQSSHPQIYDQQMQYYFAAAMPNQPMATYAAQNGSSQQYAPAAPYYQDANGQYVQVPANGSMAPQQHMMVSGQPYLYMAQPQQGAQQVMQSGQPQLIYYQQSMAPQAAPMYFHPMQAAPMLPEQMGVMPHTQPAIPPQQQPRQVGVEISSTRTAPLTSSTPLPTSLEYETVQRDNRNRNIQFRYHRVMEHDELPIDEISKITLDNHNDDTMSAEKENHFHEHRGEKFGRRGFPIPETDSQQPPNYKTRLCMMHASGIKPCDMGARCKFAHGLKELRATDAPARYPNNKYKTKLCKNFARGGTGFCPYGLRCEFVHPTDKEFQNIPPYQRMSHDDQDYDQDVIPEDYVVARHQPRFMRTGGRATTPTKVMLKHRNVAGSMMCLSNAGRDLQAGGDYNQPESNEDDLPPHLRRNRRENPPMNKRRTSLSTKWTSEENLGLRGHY

[11] = molecular target: T3, RNA-binding protein pos-1 (Caenorhabditis elegans, UniProt G5EF15); experiment: disruptors of C. elegans POS-1 RNA interaction – biochemical, fluorescence polarization, dose response (AID 1964);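 note: purified POS-1 fused to maltose binding protein made in E. coli; potency of compounds blocking POS-1 binding to fluorescent RNA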
T3 sequence (G5EF15 whole entry): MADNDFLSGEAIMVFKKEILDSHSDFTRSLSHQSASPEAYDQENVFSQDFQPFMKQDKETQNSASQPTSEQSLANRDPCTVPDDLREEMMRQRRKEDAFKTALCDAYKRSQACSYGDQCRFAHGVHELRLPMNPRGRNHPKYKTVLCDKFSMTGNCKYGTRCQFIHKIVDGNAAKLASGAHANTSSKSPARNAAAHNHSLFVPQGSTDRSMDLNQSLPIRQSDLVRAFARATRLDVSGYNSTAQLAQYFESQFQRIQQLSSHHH

[12] = molecular target: Peroxisome proliferator-activated receptor gamma/Nuclear receptor coactivator 3 (Homo sapiens, UniProt P37231); experiment: TR-FRET dose response biochemical High Throughput Screening assay for agonists of the steroid receptor coactivator 3 (SRC-3) recruitment by the peroxisome proliferator-activated receptor gamma (PPAR gamma): non-selective agonists. [Related pubchem assays: 1301 (Confirmation screen.), 1048 (Primary screen.)]; assay type: functional
[13] = test system: HeLa; experiment: ATP-based viability loss in HeLa cells – cell-based, CellTiter-Glo luminescence, cherry-pick samples, cytotoxicity control for MITF activator project, dose response (AID 540259); assay type: functional; settings: Homo sapiens
[14] = molecular target: T4, Heat shock factor protein 1 (Mus musculus, UniProt P38532); experiment: decrease of HSF1-responsive luciferase luminescence – cell-based, NIH3T3, dose retest, confirmation (AID 2382); assay type: functional;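 note: NIH3T3 fibroblasts with HSF1-driven luciferase reporter stressed by proteasome inhibitor MG132; luminescence from HSF1-driven luciferase expression after 8 hours of MG132 stress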
T4 sequence (P38532 whole entry): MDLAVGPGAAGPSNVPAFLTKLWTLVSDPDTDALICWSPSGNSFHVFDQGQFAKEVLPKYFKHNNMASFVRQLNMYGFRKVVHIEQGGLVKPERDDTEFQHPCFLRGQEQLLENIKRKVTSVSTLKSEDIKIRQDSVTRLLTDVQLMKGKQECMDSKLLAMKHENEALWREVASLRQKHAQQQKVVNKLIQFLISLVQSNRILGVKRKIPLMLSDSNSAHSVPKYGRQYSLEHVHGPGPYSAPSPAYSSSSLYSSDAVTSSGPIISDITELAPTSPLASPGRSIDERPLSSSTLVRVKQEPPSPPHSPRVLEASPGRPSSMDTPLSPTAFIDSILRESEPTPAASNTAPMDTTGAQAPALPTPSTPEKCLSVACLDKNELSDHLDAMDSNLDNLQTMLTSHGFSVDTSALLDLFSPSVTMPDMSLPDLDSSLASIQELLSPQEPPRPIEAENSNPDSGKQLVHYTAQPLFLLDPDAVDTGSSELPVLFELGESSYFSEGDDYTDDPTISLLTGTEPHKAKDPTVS

[15] = NIH-3T3 fibroblast cytotoxicity, dose response, cytotoxicity control, cell-based, fluorescence, Alamar Blue, secondary assay (AID 2327); assay type: functional;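 note: NIH-3T3 mouse fibroblasts cultured with fluconazole at 8 µg/mL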
[16] = fluconazole-exposed Candida albicans growth modulators – fluorescence, retest, confirmation (AID 2467); assay type: functional, cell-based
[17] = molecular target: FAD-linked sulfhydryl oxidase ALR (Homo sapiens, UniProt P55789); experiment: ALR-catalysed DTT oxidation blockers – biochemical, H2O2 detection, luminescence, cherry-pick, dose response (AID 493248)
[18] = molecular target: T5, Aminopeptidase N (Plasmodium falciparum FcB1/Columbia, UniProt O96935); experiment: malaria alanyl aminopeptidase activity blockers – biochemical, fluorogenic H-Leu-NHMec substrate, 1536-well (AID 1445); parameters: species or system Plasmodium falciparum 3D7, 3D7
T5 sequence (O96935 whole entry): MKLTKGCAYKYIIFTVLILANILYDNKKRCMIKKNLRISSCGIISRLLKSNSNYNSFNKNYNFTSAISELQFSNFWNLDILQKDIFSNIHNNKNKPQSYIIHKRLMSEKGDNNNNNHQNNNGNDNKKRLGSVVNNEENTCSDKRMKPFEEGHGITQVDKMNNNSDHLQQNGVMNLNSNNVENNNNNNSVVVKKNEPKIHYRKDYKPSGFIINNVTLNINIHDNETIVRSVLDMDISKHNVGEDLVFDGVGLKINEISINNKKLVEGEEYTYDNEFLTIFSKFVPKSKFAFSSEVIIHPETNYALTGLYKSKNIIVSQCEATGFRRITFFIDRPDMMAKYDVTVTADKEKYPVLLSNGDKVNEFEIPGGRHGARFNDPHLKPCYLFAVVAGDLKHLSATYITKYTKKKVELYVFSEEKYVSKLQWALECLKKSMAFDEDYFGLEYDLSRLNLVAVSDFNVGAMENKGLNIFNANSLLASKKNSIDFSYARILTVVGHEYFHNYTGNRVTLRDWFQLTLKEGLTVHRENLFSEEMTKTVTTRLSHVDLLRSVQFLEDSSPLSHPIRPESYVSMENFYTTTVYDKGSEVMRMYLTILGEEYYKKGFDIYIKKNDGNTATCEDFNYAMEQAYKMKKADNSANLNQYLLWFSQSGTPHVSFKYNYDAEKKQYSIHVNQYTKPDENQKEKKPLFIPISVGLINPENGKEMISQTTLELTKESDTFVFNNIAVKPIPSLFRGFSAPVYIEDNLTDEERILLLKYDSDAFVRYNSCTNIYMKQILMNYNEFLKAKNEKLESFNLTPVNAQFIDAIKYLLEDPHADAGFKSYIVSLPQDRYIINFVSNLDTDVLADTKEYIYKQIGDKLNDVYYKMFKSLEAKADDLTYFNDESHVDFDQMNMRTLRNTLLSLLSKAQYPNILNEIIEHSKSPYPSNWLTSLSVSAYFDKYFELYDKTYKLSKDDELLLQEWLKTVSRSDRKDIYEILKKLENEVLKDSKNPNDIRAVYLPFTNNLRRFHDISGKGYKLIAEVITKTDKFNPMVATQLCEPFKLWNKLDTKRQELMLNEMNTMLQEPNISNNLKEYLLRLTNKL

[19] = viability of uninfected HEp-2 cells – cell-based, HTS, cytotoxicity control for RSV inhibitor project, dose response (AID 2410); assay type: functional; settings: human respiratory syncytial virus
[20] = NIH3T3 cell viability loss – ATP luminescence, mouse fibroblasts, counter-screen, dose response (AID 2010); assay type: functional, cell-based;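 note: cells exposed to compound for about 90 hours before reading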
[21] = Trypanosoma cruzi growth suppression in host cells – NIH3T3 host cells, beta-gal luminescence, confirmation (AID 2044); assay type: functional, cell-based;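 note: intracellular parasites grown in NIH/3T3 mouse fibroblasts as host cells; luminescent beta-galactosidase reporter signal from transgenic T. cruzi replicating inside host cells; inhibitors lower the luminescence signal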
[22] = test system: H4; experiment: Luminescence Cell-Based Dose Response HTS to Identify Activators of 5'UTR Stem-Loop Driven Prion Protein mRNA Translation in H4 Neuroglioblastoma Cells. [Related pubchem assays: 1829 (Project Summary), 1814 (Primary HTS)]; assay type: functional; settings: Homo sapiens
[23] = molecular target: G-protein coupled receptor 55 (Homo sapiens, UniProt Q9Y2T6); experiment: selective activators of receptor GPR55 – imaging, U2OS cells, beta-arrestin-GFP redistribution, primary screen (AID 1961); assay type: functional
[24] = Luminescence Cell-Based Dose Confirmation HTS to Identify Activators of 5'UTR Stem-Loop Driven Alpha-Synuclein mRNA Translation in H4 Neuroglioblastoma Cells. [Related pubchem assays: 1829 (Project Summary), 1814 (Primary HTS)]; assay type: functional
[25] = Luminescence Cell-Based Dose Response HTS to Identify Activators of Luciferase Translation or Activity in H4 […] Cells. [Related pubchem assays: 1829 (Project Summary), 1814 (Primary HTS)]; assay type: functional

Chain of Intestinal-type alkaline phosphatase (Homo sapiens, UniProt P09923) (P09923 whole entry): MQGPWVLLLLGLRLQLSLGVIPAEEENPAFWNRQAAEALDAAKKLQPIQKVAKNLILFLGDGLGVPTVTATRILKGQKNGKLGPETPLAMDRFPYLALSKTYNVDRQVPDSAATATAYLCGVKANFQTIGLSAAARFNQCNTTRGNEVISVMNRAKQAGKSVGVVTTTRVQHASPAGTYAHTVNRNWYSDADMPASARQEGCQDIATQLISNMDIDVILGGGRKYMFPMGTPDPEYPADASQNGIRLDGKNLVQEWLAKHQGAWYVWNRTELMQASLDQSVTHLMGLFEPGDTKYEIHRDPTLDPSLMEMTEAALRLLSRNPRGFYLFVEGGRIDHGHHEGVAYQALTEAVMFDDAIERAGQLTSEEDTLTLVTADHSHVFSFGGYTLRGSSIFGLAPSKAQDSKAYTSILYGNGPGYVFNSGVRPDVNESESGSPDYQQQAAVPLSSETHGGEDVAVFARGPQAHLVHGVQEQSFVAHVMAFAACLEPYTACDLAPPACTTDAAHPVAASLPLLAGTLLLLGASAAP
Chain of Intestinal-type alkaline phosphatase (Mus musculus, UniProt P24822) (P24822 whole entry): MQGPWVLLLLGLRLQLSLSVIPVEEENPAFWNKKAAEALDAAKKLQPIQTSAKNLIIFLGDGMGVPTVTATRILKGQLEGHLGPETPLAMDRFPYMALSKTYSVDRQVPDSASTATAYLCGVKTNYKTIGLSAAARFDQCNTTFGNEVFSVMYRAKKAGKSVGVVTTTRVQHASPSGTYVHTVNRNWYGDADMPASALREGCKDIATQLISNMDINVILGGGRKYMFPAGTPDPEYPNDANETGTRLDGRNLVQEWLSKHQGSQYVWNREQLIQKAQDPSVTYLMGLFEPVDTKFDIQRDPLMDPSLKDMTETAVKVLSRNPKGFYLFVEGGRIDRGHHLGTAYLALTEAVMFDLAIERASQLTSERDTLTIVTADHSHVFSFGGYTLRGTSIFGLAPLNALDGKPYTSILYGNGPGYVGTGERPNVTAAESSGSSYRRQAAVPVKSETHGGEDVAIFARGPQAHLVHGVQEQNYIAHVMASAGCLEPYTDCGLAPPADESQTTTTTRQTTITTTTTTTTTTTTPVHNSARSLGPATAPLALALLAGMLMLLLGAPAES
Chain of Peroxisome proliferator-activated receptor gamma/Nuclear receptor coactivator 2 (P37231 whole entry): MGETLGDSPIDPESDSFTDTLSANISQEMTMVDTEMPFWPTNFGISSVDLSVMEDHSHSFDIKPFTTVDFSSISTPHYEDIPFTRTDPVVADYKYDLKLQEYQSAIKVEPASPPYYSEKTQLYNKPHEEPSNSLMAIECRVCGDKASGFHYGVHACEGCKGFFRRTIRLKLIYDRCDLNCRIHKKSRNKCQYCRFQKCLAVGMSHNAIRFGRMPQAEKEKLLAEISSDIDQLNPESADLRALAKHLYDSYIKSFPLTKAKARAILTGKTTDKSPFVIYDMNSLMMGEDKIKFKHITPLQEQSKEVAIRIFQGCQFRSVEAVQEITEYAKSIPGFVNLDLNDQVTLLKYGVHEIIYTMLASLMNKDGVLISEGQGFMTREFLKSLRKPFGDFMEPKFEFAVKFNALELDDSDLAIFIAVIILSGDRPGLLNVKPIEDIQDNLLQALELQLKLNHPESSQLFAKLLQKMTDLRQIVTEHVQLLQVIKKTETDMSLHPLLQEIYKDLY
Chain of Peroxisome proliferator-activated receptor gamma/Nuclear receptor coactivator 2 (Q15596 whole entry, further chain): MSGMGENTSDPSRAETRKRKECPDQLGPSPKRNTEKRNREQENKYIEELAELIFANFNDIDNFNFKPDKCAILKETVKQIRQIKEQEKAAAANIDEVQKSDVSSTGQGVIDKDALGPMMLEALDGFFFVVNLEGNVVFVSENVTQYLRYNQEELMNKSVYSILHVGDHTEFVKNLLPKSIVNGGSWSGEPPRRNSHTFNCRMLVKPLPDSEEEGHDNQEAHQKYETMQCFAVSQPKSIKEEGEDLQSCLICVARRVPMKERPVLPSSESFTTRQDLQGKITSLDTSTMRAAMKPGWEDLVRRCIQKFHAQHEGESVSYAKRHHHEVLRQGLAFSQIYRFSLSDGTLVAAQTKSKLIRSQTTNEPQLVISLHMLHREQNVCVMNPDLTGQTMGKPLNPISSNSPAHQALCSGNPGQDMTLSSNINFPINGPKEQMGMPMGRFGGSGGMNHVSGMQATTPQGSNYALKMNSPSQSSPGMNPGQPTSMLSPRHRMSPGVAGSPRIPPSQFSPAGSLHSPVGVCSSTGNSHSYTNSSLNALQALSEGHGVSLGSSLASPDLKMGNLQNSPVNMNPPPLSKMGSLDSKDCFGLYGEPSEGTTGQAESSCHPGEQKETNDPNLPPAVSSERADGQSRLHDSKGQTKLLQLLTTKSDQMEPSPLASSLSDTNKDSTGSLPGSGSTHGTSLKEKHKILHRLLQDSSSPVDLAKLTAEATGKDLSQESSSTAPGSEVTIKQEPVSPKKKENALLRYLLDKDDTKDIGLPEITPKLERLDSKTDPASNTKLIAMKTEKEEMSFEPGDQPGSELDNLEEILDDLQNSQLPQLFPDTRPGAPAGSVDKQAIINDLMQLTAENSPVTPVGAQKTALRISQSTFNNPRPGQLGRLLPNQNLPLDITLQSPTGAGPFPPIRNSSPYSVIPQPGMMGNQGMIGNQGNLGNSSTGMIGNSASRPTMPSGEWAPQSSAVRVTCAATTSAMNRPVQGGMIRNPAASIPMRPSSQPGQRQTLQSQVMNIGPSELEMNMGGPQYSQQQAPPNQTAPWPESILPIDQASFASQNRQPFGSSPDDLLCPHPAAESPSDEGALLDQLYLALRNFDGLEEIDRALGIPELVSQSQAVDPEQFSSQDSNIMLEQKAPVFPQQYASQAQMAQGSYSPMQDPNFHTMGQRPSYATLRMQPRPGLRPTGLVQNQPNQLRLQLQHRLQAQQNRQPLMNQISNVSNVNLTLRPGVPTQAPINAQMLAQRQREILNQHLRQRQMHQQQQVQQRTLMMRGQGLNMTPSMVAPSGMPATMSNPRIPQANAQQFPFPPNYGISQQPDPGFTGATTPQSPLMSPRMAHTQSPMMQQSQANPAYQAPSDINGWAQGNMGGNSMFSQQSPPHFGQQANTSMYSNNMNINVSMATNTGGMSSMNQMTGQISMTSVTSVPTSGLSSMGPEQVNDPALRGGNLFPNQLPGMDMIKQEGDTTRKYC
Chain of Peroxisome proliferator-activated receptor gamma/Nuclear receptor coactivator 3 (P37231 whole entry): as the sequence (P37231 whole entry) above
Chain of Peroxisome proliferator-activated receptor gamma/Nuclear receptor coactivator 3 (Q9Y6Q9 whole entry, further chain): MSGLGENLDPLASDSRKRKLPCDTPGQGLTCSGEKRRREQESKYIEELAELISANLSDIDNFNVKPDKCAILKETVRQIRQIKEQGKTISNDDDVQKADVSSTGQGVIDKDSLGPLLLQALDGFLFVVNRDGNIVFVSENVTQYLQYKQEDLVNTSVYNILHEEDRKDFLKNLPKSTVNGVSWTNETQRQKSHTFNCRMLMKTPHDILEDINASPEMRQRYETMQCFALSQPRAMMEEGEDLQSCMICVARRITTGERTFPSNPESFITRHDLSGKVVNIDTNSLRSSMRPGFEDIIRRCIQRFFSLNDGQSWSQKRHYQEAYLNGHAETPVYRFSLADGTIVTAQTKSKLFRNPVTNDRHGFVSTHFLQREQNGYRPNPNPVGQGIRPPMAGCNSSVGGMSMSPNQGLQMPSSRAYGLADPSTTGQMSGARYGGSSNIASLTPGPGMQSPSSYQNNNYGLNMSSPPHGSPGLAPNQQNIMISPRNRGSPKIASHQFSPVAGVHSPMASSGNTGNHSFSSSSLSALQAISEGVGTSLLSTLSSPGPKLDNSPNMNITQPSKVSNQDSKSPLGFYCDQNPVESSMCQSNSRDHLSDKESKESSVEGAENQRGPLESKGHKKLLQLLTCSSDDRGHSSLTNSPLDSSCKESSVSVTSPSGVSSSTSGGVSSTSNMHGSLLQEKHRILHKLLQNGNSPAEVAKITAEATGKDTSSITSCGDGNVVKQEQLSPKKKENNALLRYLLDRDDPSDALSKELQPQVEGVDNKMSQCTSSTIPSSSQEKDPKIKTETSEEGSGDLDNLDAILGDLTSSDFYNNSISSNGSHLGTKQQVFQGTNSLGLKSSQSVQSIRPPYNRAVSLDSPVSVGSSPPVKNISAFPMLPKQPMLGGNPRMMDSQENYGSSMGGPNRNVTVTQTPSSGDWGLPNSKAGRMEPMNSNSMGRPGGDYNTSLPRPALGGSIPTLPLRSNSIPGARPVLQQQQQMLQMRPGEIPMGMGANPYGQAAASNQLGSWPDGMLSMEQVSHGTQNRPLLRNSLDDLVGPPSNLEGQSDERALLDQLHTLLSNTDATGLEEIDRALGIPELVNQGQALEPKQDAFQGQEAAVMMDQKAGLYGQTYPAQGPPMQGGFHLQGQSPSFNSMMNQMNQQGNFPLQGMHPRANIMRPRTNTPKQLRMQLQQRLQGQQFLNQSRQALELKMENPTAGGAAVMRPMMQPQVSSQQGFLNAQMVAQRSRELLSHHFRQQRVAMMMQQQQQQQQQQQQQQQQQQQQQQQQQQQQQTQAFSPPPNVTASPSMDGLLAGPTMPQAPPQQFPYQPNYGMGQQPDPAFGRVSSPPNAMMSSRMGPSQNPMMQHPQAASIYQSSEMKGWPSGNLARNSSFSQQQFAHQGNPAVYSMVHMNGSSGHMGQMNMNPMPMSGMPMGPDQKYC

## NS(=O)(=O)c1ccc(CCNc2ncnc3sccc23)cc1
[1]
  IC50: 1.06 µM (active)
[2]
  IC50: 2.01 µM (active)

## c1ccc(Nc2cc(-c3ccccc3)nc3ncnn23)cc1
[3]
  AC50: 72 µM (active)
[4]
  AC50: 18.4 µM (active)

## COc1cc(C(=O)NN2C(=O)/C(=C3\C(=O)Nc4ccccc43)SC2=S)ccc1O
[5]
  IC50: 6.07 µM (active)
[6]
  IC50: 22.2 µM (active)
[7]
  IC50: > 100 µM (inactive)

## COc1cccc(C2C(C(=O)c3cc4cccc(OC)c4o3)=C(O)C(=O)N2c2cc(C)on2)c1OC (stereo not given)
[8]
  EC50: 19.6 µM (not active)
[9]
  EC50: > 79.4 µM (inactive)
[10]
  EC50: > 300 µM (not active)
[11]
  EC50: > 300 µM (not active)
[12]
  EC50: > 79.4 µM (not active)

## O=C(CS(=O)(=O)c1ccc(Cl)c(Cl)c1)Nc1ccccc1Cl
[3]
  AC50: 300 µM (active)
[4]
  AC50: 47.2 µM (active)

## N=C(NOC(=O)c1ccc2c(c1)OCO2)c1ccc(Cl)cc1
[13]
  AC50: 69 µM (active)

## O=C(c1ccc(Cl)cc1)C1CCCN(Cc2ccc3c(c2)OCCO3)C1 (stereo not given)
[14]
  EC50: > 195 µM (not active)
[3]
  AC50: 190 µM (active)

## Cc1ccc(N2NC(C)(c3cccs3)N=C2S)cc1 (stereo not given)
[15]
  EC50: 7.74 µM (active)
[16]
  EC50: 1.27 µM (active)
[13]
  AC50: > 350 µM (inactive)

## Cc1ccc(S(=O)(=O)Nc2ccc(O)c(Sc3nc[nH]n3)c2)cc1
[5]
  IC50: 13.8 µM (active)
[6]
  IC50: > 100 µM (inactive)
[17]
  AC50: 3.31 µM (active)
[18]
  IC50: 83.8 µM (active)
[7]
  IC50: > 100 µM (inactive)

## O=c1cc(CSc2nc3nncc-3c(O)n2-c2ccc(Br)cc2)nc2ccc(Br)cn12
[8]
  EC50: 11.6 µM (not active)
[9]
  EC50: 15.8 µM (inactive)
[12]
  EC50: 48.1 µM (not active)
[19]
  CC50: 22.8 µM (active)

## CCN(CC)c1nc(-c2ccccn2)nc(-c2ccccc2)c1C#N
[1]
  IC50: 3.09 µM (active)
[15]
  EC50: > 160 µM (inconclusive)
[20]
  EC50: 6.71 µM (active)
[2]
  IC50: 2.71 µM (active)
[16]
  EC50: > 38 µM (not active)
[21]
  EC50: 1.57 µM (active)

## CC(C)C[C@@H](CSc1ccccc1)N1CCN(CC(C)C)CCC1=O
[22]
  EC50: > 120 µM (not active)
[23]
  EC50: 14.1 µM (inactive)
[13]
  AC50: 147 µM (active)
[24]
  EC50: 5.27 µM (active)
[25]
  EC50: 41.4 µM (active)
